Source: patent US7776527B2, “Methods and compositions for reducing microbial induced apoptosis” (The Regents of the University of California, priority 2003, dated 2010)
Read-outs that look alike come from different tables or passages of the source. Peptide text beside a SMILES is read from it. * marks the point of attachment. Cbz = O=C(OCc1ccccc1)*; CH2F = FC*

Key:
[1] = tested on: IKKβ-deficient macrophages; assay: TUNEL apoptosis of IKKβ-deficient macrophages treated with TLR agonists or TNF-α; type: cell-based, mouse; details: without p38 inhibition, 12 hrs
Method: Bone marrow derived macrophages from Ikkβ F/F (IKKβ+/+) or MX1Cre-Ikkβ F/F (IKKβ−/−) mice were untreated or treated with LPS (100 ng/ml), LTA from B. subtilis (10 μg/ml), poly(IC) (10 μg/ml), SBLP (Pam3CSK4, 1 μg/ml), CpG-containing DNA (1 μM), and mouse TNF-α (10 ng/ml). After 12 hrs, apoptotic cell death was quantitated by TUNEL staining. Inset, macrophage lysates were analyzed by immunoblotting with antibodies specific to IKKβ and p38. (FIG. 2e)

[2] = tested on: bone marrow derived macrophages (BMDMs); type: cell-based, mouse; details: for apoptotic response of BMDMs: C57BL/6J BMDMs
PKR−/− BMDMs = type: cell-based, mouse
Method: A. Bone marrow derived macrophages (BMDMs) from PKR+/+ and PKR−/− mice were left untreated or treated with LPS plus SB202190 or LT (2.5 μg/ml PA+500 ng/ml LF), 15-deoxy-12,14-prostaglandin J2 (5 μM), or doxorubicin (10 μg/ml), as indicated. After 16 hrs, the cells were stained with Hoechst 33258 (blue) or annexin V-Alexa568 (red). […] (FIG. 9a) B. Bone marrow derived macrophages (BMDMs) from PKR+/+ or PKR−/− mice were incubated with LPS for various time periods (in days) and analyzed by TUNEL staining to determine the extent of apoptosis. […] (FIG. 9b)

A1/Bfl1 = assay: Immunoblotting of A1/Bfl1 and cIAP-1 after poly(IC) transfection and LPS; type: cell-based, mouse; details: wt BMDMs, poly(IC) transfection followed by LPS
Method: PKR+/+ and PKR−/− BMDMs were transfected with or without poly(IC) using Lipofectamine (Diebold et al. Nature 424, 324-328, 2003). After 6 hrs, LPS was added and the levels of A1/Bfl1 and cIAP-1 were examined by immunoblotting. (FIG. 5b)

[3] = tested on: bone marrow derived macrophages (BMDMs); type: cell-based, mouse; details: BMDMs preincubated with poly(IC) 6 hrs before infection
S. typhimurium = assay: Systemic S. typhimurium infection of mice pretreated with poly(IC); type: in vivo
Method: Mice (7-10 weeks old) were injected i.p. with either PBS or 200-300 μg poly(IC) in PBS. After 20 hrs, mice were injected i.p. with 10^6 S. typhiumurium 14028 in PBS. Mice that were still alive were sacrificed after 24 hrs and their spleens removed. For certain experiments, tissue was homogenized in PBS+0.1% Triton X-100. To determine bacterial counts, tissue homogenates were diluted in PBS and plated on LB agar and colonies were counted after overnight incubation at 37° C.
B. Mice (wt and PKR−/−) were Injected i.p. with PBS or 200-300 μg Poly(IC) in PBS
After 20 hrs the mice were injected i.p. with 10^6 S. typhimurium (14028) bacteria suspended in PBS. After 24 hrs, survival was monitored and mice that were still alive were sacrificed and the numbers of live bacteria within their spleens determined. * represents p=0.007. (FIG. 7b)
C. Mice were Treated as Above and Parts of their Spleens Analyzed for the Presence Of Apoptotic Cells by TUNEL Staining
Photograph was taken from the splenic red pulp where macrophages reside. (FIG. 7c)

PKR = biological target: T1, PKR (Mus musculus, UniProt Q03963); assay: PKR activation by autophosphorylation and eIF2α phosphorylation in macrophages; type: cell-based; details: for PKR activation (autophosphorylation, eIF2α phosphorylation): wt macrophages
T1 construct: endogenous in cells; host or cells: wild-type mouse bone marrow derived macrophages (BMDMs)
T1 sequence (Q03963 1-515): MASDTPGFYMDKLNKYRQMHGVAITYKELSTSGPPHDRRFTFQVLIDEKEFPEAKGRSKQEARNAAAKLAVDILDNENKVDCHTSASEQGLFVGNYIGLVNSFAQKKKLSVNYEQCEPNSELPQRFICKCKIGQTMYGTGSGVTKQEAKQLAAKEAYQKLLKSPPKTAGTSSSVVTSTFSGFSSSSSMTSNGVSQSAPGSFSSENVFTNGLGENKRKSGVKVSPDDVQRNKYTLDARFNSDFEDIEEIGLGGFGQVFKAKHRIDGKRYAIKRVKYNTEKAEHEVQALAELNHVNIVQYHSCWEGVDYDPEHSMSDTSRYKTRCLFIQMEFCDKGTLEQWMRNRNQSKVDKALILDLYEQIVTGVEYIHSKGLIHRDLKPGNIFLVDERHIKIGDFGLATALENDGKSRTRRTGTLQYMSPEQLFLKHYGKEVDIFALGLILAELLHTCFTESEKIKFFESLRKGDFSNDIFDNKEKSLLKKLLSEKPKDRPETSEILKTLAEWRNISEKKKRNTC
Method: Whole cell extracts were prepared and PKR activity was measured by autophosphorylation (Gusella et al. J Immunol 154, 345-54, 1995) after immunoprecipitation with anti-PKR antibody (Santa Cruz).
Phosphorylation of eIF2α was detected by immunoblotting with antibody against phosphorylated eIF2α (Biosource, Camarillo, Calif.). The same blot was stripped and probed with antibody against total eIF2αIKK and MAPK activation were measured as described (Park et al. Science 297, 2048-51, 2002). Phosphorylation of STAT1 (Medzhitov et al. Nature 388, 394-7 (1997) was monitored by immunoblotting with anti-phospho-STAT1 antibody (Cell Signaling, Beverly, Mass.).
Bone marrow derived macrophages (BMDMs) (wt) were stimulated with LPS (100 ng/ml) or poly(IC) (10 μg/ml) or left unstimulated. At the indicated time points cells were lysed and PKR activation was monitored by autophosphorylation. Gel loading was controlled by immunoblotting for PKR. The same lysates were monitored for eIF-2α phosphorylation by immunoblotting with antibodies specific for phosphorylated eIF-2a (P-eIF-2α) and total eIF-2α (FIG. 3a)

[4] = tested on: J774A.1 macrophage-like cells; assay: Nucleosomal DNA ladder in J774A.1 cells incubated with LPS plus SB202190 and pan-caspase inhibitor; type: cell-based; details: inhibitor 10, 100, 200 μM, 18 hrs
Method: A. J774A.1 macrophage-like cells were incubated with LPS plus SB202190 (10 μM) whereas NIH3T3 fibroblasts were incubated with mouse TNF-α (10 ng/ml) plus cycloheximide (25 μg/ml). At the indicated time points cell lysates were prepared and analyzed by immunoblotting with antibodies specific to caspase-8. (FIG. 8a) B. J774A.1 macrophage-like cells were incubated with LPS plus SB202190 (10 μm), whereas NIH3T3 fibroblasts were incubated with mouse TNF-α (10 ng/ml) plus cycloheximide (25 μg/ml). At the indicated time points cell lysates were prepared and analyzed by immunoblotting with antibodies specific to caspase-3. (FIG. 8b) C. J774A.1 macrophage-like cells were incubated with or without LPS in the absence or presence of SB202190. When indicated, increasing concentrations (10, 100, and 200 μM) of a pan-caspase inhibitor (ZVAD-FMK) were added. After 18 hrs, genomic DNA was isolated and analyzed by agarose gel electrophoresis and EtBr staining for appearance of nucleosomal ladders indicative of apoptosis. (FIG. 8c)

[5] = with p38 inhibition (SB202190 10 μM), 18 hrs

lipoteichoiec acid [LTA]
apoptosis of IKKβ-deficient macrophages [1]: underwent apoptosis

C[C@@H]1C[C@@H]([C@H](O)CC2CC(=O)NC(=O)C2)C(=O)[C@@H](C)C1 [cycloheximide]
apoptosis on mere incubation ([2]; wt or PKR−/− BMDMs, cycloheximide 10 μg/ml): triggered apoptosis

COc1cccc2c1C(=O)c1c(O)c3c(c(O)c1C2=O)C[C@@](O)(C(=O)CO)C[C@@H]3O[C@H]1C[C@H](N)[C@H](O)[C@H](C)O1 [doxorubicin]
apoptosis of PKR−/− BMDMs (PKR−/− BMDMs; PKR−/− BMDMs, 16 hrs, annexin V): still underwent apoptosis

TNF-α
apoptosis of IKKβ-deficient macrophages [1]: underwent apoptosis

poly(IC)
accumulation of A1/Bfl1 (A1/Bfl1): inhibited the accumulation
effect on apoptosis in response to live S. typhimurium or Y. pseudotuberculosis [3]: potentiated apoptosis
enhancement of bacterial load, apoptosis or mortality (S. typhimurium; PKR−/− mice, poly(IC) pretreatment): little enhancement
number of apoptotic cells in the red pulp of the spleens (S. typhimurium; S. typhimurium infected wt mice, poly(IC) pretreatment): increased the number of apoptotic cells
increase in number of live bacteria recovered from the spleen (S. typhimurium; wt mice, 200-300 μg poly(IC) i.p. before S. typhimurium, 24 hrs): 3.5 fold
mortality caused by S. typhimurium infection (S. typhimurium; wt mice, poly(IC) pretreatment): increased the mortality
PKR activity after transfection versus simple addition to culture medium (PKR; poly(IC) introduced by transfection (lipofectamine)): higher levels of PKR activity
PKR activation (autophosphorylation, eIF2α phosphorylation) (PKR): rapidly activated
apoptosis of IKKβ-deficient macrophages [1]: more susceptible
apoptotic response of BMDMs ([2]; without p38 inhibition, 18 hrs): weak apoptotic response
apoptosis after transfection versus simple addition to culture medium ([2]; poly(IC) transfection, LPS added 6 hrs later, 18 hrs): higher level of apoptosis
sensitization of BMDMs to LPS-induced apoptosis ([2]; with LPS, without SB202190): renders BMDMs susceptible to LPS-induced apoptosis

lipopolysaccharide [LPS]
PKR activation (autophosphorylation, eIF2α phosphorylation) (PKR): rapidly activated
apoptosis of IKKβ-deficient macrophages [1]: underwent apoptosis
apoptotic response of BMDMs [2, 5]: strong apoptotic response
apoptosis on prolonged incubation ([2]; wt BMDMs, without p38 inhibition, prolonged incubation (days)): resulted in apoptosis

Pam3CSK4 [SBLP]
apoptotic response of BMDMs [2, 5]: Little apoptosis

CCCCCC=CC=C1C(=O)C=C[C@@H]1CC=CCCCC(=O)O [15-deoxy-12,14-prostaglandin J2]
apoptosis of PKR−/− BMDMs (PKR−/− BMDMs): still underwent apoptosis

COC(=O)C[C@H](NC(=O)[C@H](C)NC(=O)[C@@H](NC(=O)OCc1ccccc1)C(C)C)C(=O)CF [pan-caspase inhibitor, ZVAD-FMK] (Cbz-Val-Ala-Asp(OMe)-CH2F)
effect on LPS-induced macrophage apoptosis [4]: apoptosis was inhibited

Oc1ccc(-c2nc(-c3ccncc3)c(-c3ccc(F)cc3)[nH]2)cc1 [SB202190]
macrophage apoptosis induced by heat-inactivated B. anthracis ([2]; in the presence of SB202190 (10 μM), 18 hrs, TUNEL): extensive macrophage apoptosis
